Experimental data as given in PMC4718634, “Murine GPRC6A Mediates Cellular Responses to L-Amino Acids, but Not Osteocalcin Variants” (PLoS ONE, 2016).
Entries after “also recorded” stand apart in the source; their conditions may differ. Bridge positions count the residues as written; N and C are the ends. Ends that are not written are not given here.

Experiments:
GPRC6A [1] = conditions: ref [6] (supplement list); cited from earlier work
Text: (§1) Supplement pone.0146846.s004.docx, table 1 | column: Functional assay

22RV1 / PC-3 = conditions: endogenous; ref [9] (supplement list); cited from earlier work
Text: as §1

mC6A = conditions: ref [10] (supplement list); cited from earlier work
Text: as §1

mGPRC6A (mouse GPRC6A) = target: T1, mGPRC6A (mouse GPRC6A) (Mus musculus, UniProt Q8K4Z6); assay: Ca^2+i mobilisation, FlpIn-TREx-HEK293-mGPRC6A cells; format: cell-based; conditions: for activity in calcium mobilisation assays: with co-expressed Gαq or GαqG66D
T1 sequence (Q8K4Z6 21-928): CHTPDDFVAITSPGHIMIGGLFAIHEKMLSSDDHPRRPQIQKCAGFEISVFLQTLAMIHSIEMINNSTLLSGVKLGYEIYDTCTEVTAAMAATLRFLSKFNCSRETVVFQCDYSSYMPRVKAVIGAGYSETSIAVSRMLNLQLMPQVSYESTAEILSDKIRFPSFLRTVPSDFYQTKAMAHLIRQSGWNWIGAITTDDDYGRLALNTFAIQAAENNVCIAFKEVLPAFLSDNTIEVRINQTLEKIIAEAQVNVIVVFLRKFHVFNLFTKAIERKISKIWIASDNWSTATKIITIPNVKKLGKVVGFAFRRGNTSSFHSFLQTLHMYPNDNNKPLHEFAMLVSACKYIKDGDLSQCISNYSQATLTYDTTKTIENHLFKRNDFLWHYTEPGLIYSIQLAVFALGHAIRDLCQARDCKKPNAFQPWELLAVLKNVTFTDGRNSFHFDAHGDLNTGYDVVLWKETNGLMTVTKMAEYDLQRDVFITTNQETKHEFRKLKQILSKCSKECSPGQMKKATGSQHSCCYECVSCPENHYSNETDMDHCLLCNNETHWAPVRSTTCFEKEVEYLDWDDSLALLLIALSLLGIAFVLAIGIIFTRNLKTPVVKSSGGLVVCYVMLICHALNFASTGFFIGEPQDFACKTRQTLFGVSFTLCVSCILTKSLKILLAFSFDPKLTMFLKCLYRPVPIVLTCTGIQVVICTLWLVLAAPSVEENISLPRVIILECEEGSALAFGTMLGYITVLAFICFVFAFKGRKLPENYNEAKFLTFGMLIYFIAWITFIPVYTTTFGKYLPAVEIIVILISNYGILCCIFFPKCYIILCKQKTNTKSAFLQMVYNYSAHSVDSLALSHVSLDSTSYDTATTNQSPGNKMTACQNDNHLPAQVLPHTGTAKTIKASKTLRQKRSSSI
Method: pcDNA 5/FRT/TO constructs were isogenically integrated into a FlpIn-TREx-HEK293 cell line (Life Technologies). FlpIn-TREx-HEK293-mGPRC6A and FlpIn-TREx-HEK293-hGPRC6A cells were then selected using 600 μg/ml hygromycin and 5 μg/ml blasticidin and grown in culture medium consisting of Dulbecco’s Modified Eagle Medium (DMEM), supplemented with 10% (v/v) foetal bovine serum (FBS) at 37°C in 5% CO2 and were sub-cultured in a 1:3 ratio every 3–4 days. Cells were cultured overnight in the presence of 1 μg/ml tetracycline to induce GPRC6A expression. […] 48 h after transfection, cells were selected using 3 μg/ml puromycin and grown as above.
FlpIn-TREx-HEK293-mGPRC6A cells were seeded into T75 flasks at 70% confluency. Cells were transfected with 15μg of plasmid DNA (Gαq or GαqG66D) with Lipofectamine LTX according to manufacturer's instructions, then incubated for 24h at 37°C in 5% CO2. Cells were plated into 96-well plates (10^5 cells/well) and equilibrated at 37°C in 5% CO2 for 4-6h to adhere, whereupon cells were serum starved overnight at 37°C in 5% CO2. For the assay, cells were washed twice in Ca^2+ assay buffer (150 mM NaCl, 2.6 mM KCl, 1.2 mM MgCl2, 10 mM dextrose, 10 mM HEPES, 2.2 mM CaCl2, 0.5% (w/v) BSA and 4 mM probenecid; pH 7.4). Buffer was then replaced with Ca^2+ assay buffer containing 1μM Fluo-4-AM and incubated for 1h at 37°C in 5% CO2. Cells were washed twice more and replaced with Ca^2+ assay buffer at 37°C. Serial dilutions of test agonists were added by injection in a Flexstation™ (Molecular Devices) and fluorescence was measured at 485nm excitation and 520nm emission wavelengths. Agonist responses were normalised to the peak of response to 100 μM ATP.
(§2) Data for all HEK293 assays represent the mean ± SEM of at least three independent experiments (except cell impedance, n = 2). For GLP-1 release, the data represent mean ± SEM of three to five independent experiments (except for OCN, wash; n = 2). For insulin release assays, data represent the mean ± SEM of three independent experiments (except for islet studies; n = 2). Insulin release data were normalised to the response to vehicle in either low or high [glucose]. Statistical analysis for GLP-1 release data were performed by one-way ANOVA, followed by Sidak’s multiple comparisons test (treating wash / no wash datasets separately). Statistical analyses for insulin release data were performed by two-way ANOVA (with [glucose] and drug treatment as group variables), followed by Sidak’s multiple comparisons test. Where only high [glucose] groups were evaluated, statistical analysis was by one-way ANOVA followed by Sidak’s multiple comparisons test.

GPRC6A [2] = conditions: HEK293, mouse GPRC6A with human OCN; ref [11]; cited from earlier work
Text: Additional interest in GPRC6A has emerged due to several studies reporting that it mediates the metabolic and endocrine effects of the de-carboxylated form of the osteoblast-derived peptide, osteocalcin (OCN).

INS-1(832) cells = assay: Label-free cell impedance, INS-1(832) cells; format: cell-based, rat; conditions: Gprc6a-negative, EBSS, 2.8 mM glucose, Fig 7, two-way ANOVA, *P < 0.05, **P < 0.01 vs Vehicle
Method: For INS-1 cells, 100 μl of medium (RPMI 1640 no glucose, 10% FBS, 55 μM β-mercaptoethanol, 1 mM sodium pyruvate, 10 mM HEPES, 100 U/ml penicillin, 100 μg/ml streptomycin, 11.1 mM glucose) was added per well to an E-plate 96 and a background reading taken. Cells were seeded at 2 x 10^4 / well and the plates incubated in the instrument for 48 h. On the day of the experiment, media was changed to EBSS buffer (180 μl; 2.8 mM glucose, 1.8 mM CaCl2, 5.3 mM KCl, 0.8 mM MgSO4, 117 mM NaCl, 26 mM NaHCO3, 1 mM NaH2PO4). After 2 h incubation, cells were stimulated with 20 μl test compound (10 x final) prepared in the same buffer. Data capture and analysis were as for HEK293 cells.

GLUTag cells = assay: GLP-1 release from GLUTag cells; format: cell-based, murine; conditions: 0.01–10 ng/ml; with or without cell washing; 2 h; Fig 6A; listed as Human synthetic OCN
Method: Intestinal L-cell model GLUTag cells were seeded in 24-well plates coated with Matrigel and incubated for 6 days in DMEM with 10% FBS, 100 U/ml penicillin, 100 μg/ml streptomycin at 37°C in 5% CO2 and grown for 4–5 days. Where indicated, cells were washed (1 or 2 x 1h) with Krebs-HEPES buffer (20 mM HEPES, 118 mM NaCl, 4.7 mM KCl, 1.2 mM MgSO4, 5 mM NaHCO3, 1.2 mM KH2PO4, 2.5 mM CaCl2, 5.5 mM glucose, 0.2% BSA (w/v), pH 7.2) containing vildagliptin (300 μM) prior to addition of test compounds in the same buffer. After 2 h incubation at 37°C in 5% CO2, the supernatant was recovered and centrifuged at 500 rpm for 5 min. Where used, NPS-2143 pre-treatment was for 30 min.
GLP-1 content in the cell supernatant was measured by ELISA (EGLP-35K, Millipore), according to manufacturer’s instructions after overnight incubation of 15 μl supernatant in 100 μl Krebs-HEPES buffer at 4°C. After 5 x washes, 200 μl of detection conjugate was added and incubated for 2 h at RT. After 3 x washes the reaction was developed with 200 μl of diluted substrate (1:200) for 20 min and terminated by addition of 50 μl stop solution. After 5 min, fluorescence was then measured using 355 nm excitation and 460 nm emission, transforming the obtained signal into pmol GLP-1/well/ml and corrected for GLUTag cell protein content as determined using the method of Bradford (1976).
as §2, with “Concentration-response data were analysed using a three or four parameter logistic function (Motulsky & Christopoulos, 2004) to generate estimates of agonist potency (LogEC50). Data” for “Data”

[Ca+2].[Cl-].[Cl-] [CaCl2]
SRE-reporter gene response (GPRC6A [1]): pERK1/2 – response to Ca^2+, Mg^2+, Gd^3+, Al^3+, NPS R568 SRE-reporter gene – response to CaCl2, SrCl2, MgCl2, GdCl3 and OCN

C[C@]1(O)CC[C@H]2[C@@H]3CCC4=CC(=O)CCC4=C3C=C[C@@]21C [R1881]
PSA, Runx2 expression response (22RV1 / PC-3): pERK1/2 – response to Ca^2+, ZnCl2, OCN, Arginine, Testosterone-BSA Proliferation – response to Ca^2+, OCN PSA, Runx2 expression – response to OCN, Arg, R1881 Chemotaxis (22RV1) – response to Ca^2+, OCN | SRE-reporter gene response (mC6A): pERK1/2 – response to Testosterone-BSA, R1881 SRE-reporter gene – response to R1881, Ca^2+ | pERK1/2 response (mC6A): pERK1/2 – response to Testosterone-BSA, R1881 SRE-reporter gene – response to R1881, Ca^2+

NC(=O)CC[C@H](N)C(=O)O [L-glutamine]
EC50 (mGPRC6A (mouse GPRC6A)): > 1000 µM | activity in calcium mobilisation assays (mGPRC6A (mouse GPRC6A)): little or no activity

[Cl-].[Cl-].[Sr+2] [SrCl2]
SRE-reporter gene response (GPRC6A [1]): pERK1/2 – response to Ca^2+, Mg^2+, Gd^3+, Al^3+, NPS R568 SRE-reporter gene – response to CaCl2, SrCl2, MgCl2, GdCl3 and OCN

human OCN: in b69: synthetic human OCN of Fig 7; in b64: human OCN of ref 11 (YLYQWLGAPVPYPDPLEPRREVCELNPDCDELADHIGFQEAYRRFYGPV; disulfide 23-29 (inferred); not fully specified; printed as YLYQWLGAPVPYPDPLEPRREVCELNPDCDELADHIGFQEAYRRFYGPV-NH2/-COOH; ends not checked; UniProt P02818 52-100, looked up)
OCN concentration stimulating cAMP accumulation (GPRC6A [2]): 60 ng/mL | change in cell impedance (cell index) (INS-1(832) cells): significant, concentration-dependent activity

mouse OCN: in b69: synthetic mouse OCN of Fig 7 (GSPEFYLGASVPSPDPLEPTREQCELNPACDELSDQYGLKTAYKRIYGITI; ends and bridges not checked; cysteine pairing not given here)
change in cell impedance (cell index) (INS-1(832) cells): significant, concentration-dependent activity

[Cl-].[Cl-].[Mg+2] [MgCl2]
SRE-reporter gene response (GPRC6A [1]): pERK1/2 – response to Ca^2+, Mg^2+, Gd^3+, Al^3+, NPS R568 SRE-reporter gene – response to CaCl2, SrCl2, MgCl2, GdCl3 and OCN

YLYQWLGAPVPYPDPLEPRREVCELNPDCDELADHIGFQEAYRRFYGPV-NH2/-COOH (disulfide) [human synthetic OCN, synthetic de-carboxylated human osteocalcin, Federation Bioscience]
change in cell impedance (cell index) (INS-1(832) cells; listed as synthetic human OCN): significant changes in cell impedance; also recorded: Concentration-dependent increases in cell index | GLP-1 release, OCN (GLUTag cells): did not significantly modulate GLP-1 release

[Cl][Gd]([Cl])[Cl] [GdCl3]
SRE-reporter gene response (GPRC6A [1]): pERK1/2 – response to Ca^2+, Mg^2+, Gd^3+, Al^3+, NPS R568 SRE-reporter gene – response to CaCl2, SrCl2, MgCl2, GdCl3 and OCN

N[C@@H](Cc1c[nH]cn1)C(=O)O [L-histidine]
EC50 (mGPRC6A (mouse GPRC6A)): > 1000 µM | activity in calcium mobilisation assays (mGPRC6A (mouse GPRC6A)): little or no activity

COc1cccc([C@@H](C)NCCCc2ccccc2Cl)c1 [NPS R568]
pERK1/2 response (GPRC6A [1]): pERK1/2 – response to Ca^2+, Mg^2+, Gd^3+, Al^3+, NPS R568 SRE-reporter gene – response to CaCl2, SrCl2, MgCl2, GdCl3 and OCN

CC(C)[C@H](N)C(=O)O [L-valine]
EC50 (mGPRC6A (mouse GPRC6A)): > 1000 µM | activity in calcium mobilisation assays (mGPRC6A (mouse GPRC6A)): little or no activity
